The source of these data is ChEMBL document CHEMBL1201862, “PubChem BioAssay data set” (2004).

Experiment [1] has as its target Ras and Rab interactor 1/Tyrosine-protein kinase ABL1 (Homo sapiens, UniProt P00519+Q13671). It is filed as functional.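 Further: biochemical TR-FRET dose-response test measuring inhibition of binding between Rin1 and Abl proteins.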
Experiment [2] deals with T1, Heat shock factor protein 1 (Mus musculus, UniProt P38532).
T1 sequence (P38532 whole entry): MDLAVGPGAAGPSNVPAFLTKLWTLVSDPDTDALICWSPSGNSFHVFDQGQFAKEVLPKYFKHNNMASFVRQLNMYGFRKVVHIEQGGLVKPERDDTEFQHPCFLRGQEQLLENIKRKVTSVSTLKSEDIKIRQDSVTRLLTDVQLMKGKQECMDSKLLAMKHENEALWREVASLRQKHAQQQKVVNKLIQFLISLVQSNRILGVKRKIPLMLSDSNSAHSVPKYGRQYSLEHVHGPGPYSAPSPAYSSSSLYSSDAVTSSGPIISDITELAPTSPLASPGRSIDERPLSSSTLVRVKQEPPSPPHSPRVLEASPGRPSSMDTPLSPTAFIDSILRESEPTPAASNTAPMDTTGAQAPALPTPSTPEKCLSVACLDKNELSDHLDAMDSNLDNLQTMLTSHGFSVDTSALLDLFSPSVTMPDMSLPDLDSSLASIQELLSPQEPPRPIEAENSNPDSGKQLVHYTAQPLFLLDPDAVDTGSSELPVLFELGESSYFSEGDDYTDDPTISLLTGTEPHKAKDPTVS
Put plainly: decrease of HSF1-responsive luciferase luminescence – cell-based, NIH3T3, dose retest, confirmation (AID 2382).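 Further: NIH3T3 fibroblasts with HSF1-driven luciferase reporter stressed by proteasome inhibitor MG132; luminescence from HSF1-driven luciferase expression after 8 hours of MG132 stress.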 It counts as functional.

For experiment [3], the target named is T2, Insulin-degrading enzyme (Homo sapiens, UniProt P14735).
T2 sequence (P14735 whole entry): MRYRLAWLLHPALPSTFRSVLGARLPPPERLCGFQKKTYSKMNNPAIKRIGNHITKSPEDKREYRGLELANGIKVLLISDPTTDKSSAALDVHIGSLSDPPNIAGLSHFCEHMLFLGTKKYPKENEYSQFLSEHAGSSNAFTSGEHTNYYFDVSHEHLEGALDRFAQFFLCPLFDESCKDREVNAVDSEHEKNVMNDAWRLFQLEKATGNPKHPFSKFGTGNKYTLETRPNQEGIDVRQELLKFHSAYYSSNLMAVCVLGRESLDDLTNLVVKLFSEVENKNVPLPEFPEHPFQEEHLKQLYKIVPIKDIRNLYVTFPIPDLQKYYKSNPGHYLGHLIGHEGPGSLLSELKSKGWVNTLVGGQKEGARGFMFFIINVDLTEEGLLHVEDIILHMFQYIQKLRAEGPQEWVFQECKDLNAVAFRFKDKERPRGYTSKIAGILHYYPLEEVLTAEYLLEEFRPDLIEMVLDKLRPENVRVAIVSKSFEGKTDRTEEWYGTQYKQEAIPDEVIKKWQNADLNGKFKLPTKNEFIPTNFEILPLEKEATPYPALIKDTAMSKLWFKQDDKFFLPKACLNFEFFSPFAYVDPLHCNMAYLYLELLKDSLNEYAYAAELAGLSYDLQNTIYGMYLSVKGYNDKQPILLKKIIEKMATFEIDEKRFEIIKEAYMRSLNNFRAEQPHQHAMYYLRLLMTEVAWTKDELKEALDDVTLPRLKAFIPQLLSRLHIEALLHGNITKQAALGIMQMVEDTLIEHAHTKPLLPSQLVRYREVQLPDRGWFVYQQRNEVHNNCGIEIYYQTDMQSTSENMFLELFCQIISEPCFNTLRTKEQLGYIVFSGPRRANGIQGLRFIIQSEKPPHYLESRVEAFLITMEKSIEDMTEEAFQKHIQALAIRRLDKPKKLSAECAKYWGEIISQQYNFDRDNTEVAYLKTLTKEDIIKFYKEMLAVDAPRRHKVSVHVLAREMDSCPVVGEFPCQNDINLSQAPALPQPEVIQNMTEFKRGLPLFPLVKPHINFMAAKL
Put plainly: cellular IDE activation of Abeta substrate cleavage – fluorescence polarization, HEK cells, dose response (AID 588439). It counts as functional, cell-based. Background: Polarisation of emitted light reports the rotation of a fluorescent probe.

The subject of experiment [4] is HEK293. Put plainly: optical interference in Abeta FP readout, dose response, artefact control for IDE activator project, biochemical, fluorescence polarization (AID 588442). It is filed as functional, cell-based. Conditions: Homo sapiens.
The target of experiment [5] is T2, Insulin-degrading enzyme. As to the kind of experiment: recombinant IDE activation, cell-free – biochemical, fluorescence polarization, counter-screen for IDE activator project, dose response (AID 588681).
In experiment [6] the test system is HEK293. As to the kind of experiment: membrane integrity loss in HEK cells – cell-based, fluorescence, cytotoxicity control for IDE activator project, dose response (AID 588440).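 Further: cytotoxicity by LDH release measuring loss of membrane integrity.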 It is filed as functional. The conditions noted are these: Homo sapiens.
Experiment [7] addresses T3, Endoribonuclease toxin MazF (Escherichia coli K-12, UniProt P0AE70).
T3 sequence (P0AE70 whole entry): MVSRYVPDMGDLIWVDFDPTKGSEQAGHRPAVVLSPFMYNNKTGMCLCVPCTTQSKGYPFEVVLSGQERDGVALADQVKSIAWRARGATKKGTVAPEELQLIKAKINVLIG
Put plainly: substrate-only fluorescence increase artefacts – biochemical, single-stranded RNase substrate, counter-screen for MazEF activator project, dose response (AID 588502). It is filed as functional. (In general: The purpose of a counterscreen is to sort out artefacts and off-target activity.)

In experiment [8] the target is Cytochrome P450 3A4 (Homo sapiens, UniProt P08684). Conditions: Potency.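 Further: confirmatory qHTS run detecting inhibitors and substrates of CYP3A4.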
The target in experiment [9] is T3, Endoribonuclease toxin MazF. As to the kind of experiment: activation of MazEF endoribonuclease cleavage – biochemical, fluorescence, single-stranded RNA substrate, uHTS hits, dose response (AID 588481). It counts as functional.
Experiment [10] addresses Mitochondrial peptide methionine sulfoxide reductase (Bos taurus, UniProt P54149). It counts as functional.
Experiment [11] addresses T4, Calpain-2 catalytic subunit (Sus scrofa, UniProt P43367).
T4 sequence (P43367 whole entry): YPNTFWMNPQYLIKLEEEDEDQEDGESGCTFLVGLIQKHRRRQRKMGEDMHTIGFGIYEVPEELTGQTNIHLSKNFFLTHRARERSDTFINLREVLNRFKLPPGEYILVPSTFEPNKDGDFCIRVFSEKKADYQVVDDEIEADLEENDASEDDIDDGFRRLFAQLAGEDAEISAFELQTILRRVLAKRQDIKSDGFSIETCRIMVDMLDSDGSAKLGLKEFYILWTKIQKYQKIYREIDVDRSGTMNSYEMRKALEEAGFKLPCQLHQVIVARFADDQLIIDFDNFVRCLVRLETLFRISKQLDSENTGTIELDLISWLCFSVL
As to the kind of experiment: m-calpain protease blockers, concentration series – biochemical, fluorogenic peptide substrate, dose response (AID 1420). It counts as functional.

In experiment [12] the target is T1, Heat shock factor protein 1. As to the kind of experiment: enhancement of HSF1-driven luciferase signal – cell-based, NIH3T3, luminescence, dose retest, confirmation (AID 435004).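 Further: stress induced by proteasome inhibitor MG132 added 30 min after compound; luciferase reporter driven by HSF1 response element in NIH3T3 cells; actives raise luminescence as potentiators of the MG132 stress response.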 It is filed as functional.
The target of experiment [13] is T5, Type-1 angiotensin II receptor (Homo sapiens, UniProt P30556).
T5 sequence (P30556 whole entry): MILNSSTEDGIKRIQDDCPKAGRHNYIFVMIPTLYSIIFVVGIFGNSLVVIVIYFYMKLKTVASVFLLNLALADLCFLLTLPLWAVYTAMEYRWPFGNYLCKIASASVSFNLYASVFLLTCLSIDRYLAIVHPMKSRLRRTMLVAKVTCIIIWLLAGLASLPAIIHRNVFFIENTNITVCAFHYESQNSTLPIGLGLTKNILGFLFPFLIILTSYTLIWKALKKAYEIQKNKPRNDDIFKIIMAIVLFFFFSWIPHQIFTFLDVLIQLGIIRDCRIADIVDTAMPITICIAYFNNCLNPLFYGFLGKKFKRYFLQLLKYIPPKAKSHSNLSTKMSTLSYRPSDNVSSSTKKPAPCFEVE
Put plainly: antagonism of angiotensin II type 1 receptor – cell-based, uHTS hits, selectivity assay for APJ receptor antagonist project, dose response (AID 463214).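 Further: antagonist potency against angiotensin II stimulated AT1 response.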 It is filed as functional.

The target in experiment [14] is Beta-galactosidase (Escherichia coli, UniProt Q8VNN2). As to the kind of experiment: PubChem AID 485352. It counts as functional.

Calls of active or inactive are those of the source.

Chain of Ras and Rab interactor 1/Tyrosine-protein kinase ABL1 (P00519 whole entry): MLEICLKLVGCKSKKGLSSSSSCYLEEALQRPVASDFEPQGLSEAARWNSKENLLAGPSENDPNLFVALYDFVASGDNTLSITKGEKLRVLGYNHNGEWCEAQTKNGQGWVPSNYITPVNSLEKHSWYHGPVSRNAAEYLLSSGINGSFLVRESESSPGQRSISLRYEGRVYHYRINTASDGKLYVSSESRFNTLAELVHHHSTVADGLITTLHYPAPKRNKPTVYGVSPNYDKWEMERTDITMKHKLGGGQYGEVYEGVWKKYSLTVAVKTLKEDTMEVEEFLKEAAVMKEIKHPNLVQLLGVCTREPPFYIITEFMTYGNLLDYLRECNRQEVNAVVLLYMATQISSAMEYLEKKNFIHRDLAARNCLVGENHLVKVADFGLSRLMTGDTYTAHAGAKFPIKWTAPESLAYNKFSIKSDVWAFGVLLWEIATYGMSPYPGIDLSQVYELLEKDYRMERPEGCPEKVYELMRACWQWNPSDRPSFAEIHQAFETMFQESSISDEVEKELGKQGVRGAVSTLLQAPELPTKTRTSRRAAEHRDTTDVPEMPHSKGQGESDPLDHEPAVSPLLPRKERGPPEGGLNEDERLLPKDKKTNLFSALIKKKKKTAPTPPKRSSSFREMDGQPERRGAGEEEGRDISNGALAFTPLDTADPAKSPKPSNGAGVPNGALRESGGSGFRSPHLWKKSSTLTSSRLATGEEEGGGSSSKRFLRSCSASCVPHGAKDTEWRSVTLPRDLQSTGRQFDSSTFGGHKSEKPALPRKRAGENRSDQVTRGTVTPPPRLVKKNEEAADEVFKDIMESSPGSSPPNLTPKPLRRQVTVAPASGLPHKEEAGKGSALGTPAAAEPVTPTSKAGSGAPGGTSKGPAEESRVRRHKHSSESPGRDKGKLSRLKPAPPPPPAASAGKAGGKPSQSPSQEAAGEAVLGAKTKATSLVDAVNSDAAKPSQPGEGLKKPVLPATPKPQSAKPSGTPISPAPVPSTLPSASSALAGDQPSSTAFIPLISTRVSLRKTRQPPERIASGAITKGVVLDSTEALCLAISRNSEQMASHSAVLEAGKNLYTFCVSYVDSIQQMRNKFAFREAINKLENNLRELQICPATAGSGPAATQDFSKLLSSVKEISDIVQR
Chain of Ras and Rab interactor 1/Tyrosine-protein kinase ABL1 (Q13671 whole entry): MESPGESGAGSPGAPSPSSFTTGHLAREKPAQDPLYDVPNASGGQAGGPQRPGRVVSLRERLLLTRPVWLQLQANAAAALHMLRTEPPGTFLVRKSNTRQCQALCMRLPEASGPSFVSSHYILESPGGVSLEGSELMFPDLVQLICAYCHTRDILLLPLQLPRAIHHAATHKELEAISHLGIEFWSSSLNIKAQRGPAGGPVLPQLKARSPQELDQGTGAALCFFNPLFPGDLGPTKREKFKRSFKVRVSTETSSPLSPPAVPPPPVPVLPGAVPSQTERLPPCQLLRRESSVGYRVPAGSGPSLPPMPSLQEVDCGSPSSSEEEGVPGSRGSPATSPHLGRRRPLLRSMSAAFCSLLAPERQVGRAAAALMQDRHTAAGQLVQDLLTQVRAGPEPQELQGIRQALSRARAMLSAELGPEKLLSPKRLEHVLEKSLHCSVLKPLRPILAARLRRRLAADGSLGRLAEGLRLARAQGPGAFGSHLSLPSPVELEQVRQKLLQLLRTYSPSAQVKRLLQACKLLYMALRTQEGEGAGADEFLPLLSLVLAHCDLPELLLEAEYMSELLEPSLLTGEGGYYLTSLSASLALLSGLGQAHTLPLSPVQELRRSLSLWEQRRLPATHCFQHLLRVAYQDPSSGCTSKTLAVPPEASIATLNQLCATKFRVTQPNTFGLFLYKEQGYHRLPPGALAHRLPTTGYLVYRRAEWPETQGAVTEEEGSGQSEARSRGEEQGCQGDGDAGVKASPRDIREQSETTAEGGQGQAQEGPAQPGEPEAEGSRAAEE
Chain of Cytochrome P450 3A4 (P08684 whole entry): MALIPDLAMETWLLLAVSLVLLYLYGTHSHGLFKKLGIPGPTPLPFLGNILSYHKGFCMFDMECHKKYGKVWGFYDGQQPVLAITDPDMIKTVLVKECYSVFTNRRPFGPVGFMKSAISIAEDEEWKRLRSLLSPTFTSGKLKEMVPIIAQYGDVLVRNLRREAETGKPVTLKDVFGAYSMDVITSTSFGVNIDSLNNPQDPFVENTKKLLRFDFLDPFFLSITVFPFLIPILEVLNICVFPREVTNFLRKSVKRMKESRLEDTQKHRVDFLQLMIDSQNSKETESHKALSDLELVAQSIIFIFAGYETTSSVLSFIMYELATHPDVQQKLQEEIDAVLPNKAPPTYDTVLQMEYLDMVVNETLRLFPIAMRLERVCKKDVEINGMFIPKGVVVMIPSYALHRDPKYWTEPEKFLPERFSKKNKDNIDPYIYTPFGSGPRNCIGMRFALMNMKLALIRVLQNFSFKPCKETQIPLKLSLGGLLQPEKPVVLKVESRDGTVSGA
Chain of Mitochondrial peptide methionine sulfoxide reductase (P54149 whole entry): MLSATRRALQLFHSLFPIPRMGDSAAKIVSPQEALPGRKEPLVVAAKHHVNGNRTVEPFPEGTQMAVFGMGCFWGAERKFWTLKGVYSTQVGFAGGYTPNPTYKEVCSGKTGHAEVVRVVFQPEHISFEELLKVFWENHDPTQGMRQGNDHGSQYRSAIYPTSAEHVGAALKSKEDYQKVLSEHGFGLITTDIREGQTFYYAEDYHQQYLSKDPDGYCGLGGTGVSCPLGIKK
Chain of Beta-galactosidase (Q8VNN2 whole entry): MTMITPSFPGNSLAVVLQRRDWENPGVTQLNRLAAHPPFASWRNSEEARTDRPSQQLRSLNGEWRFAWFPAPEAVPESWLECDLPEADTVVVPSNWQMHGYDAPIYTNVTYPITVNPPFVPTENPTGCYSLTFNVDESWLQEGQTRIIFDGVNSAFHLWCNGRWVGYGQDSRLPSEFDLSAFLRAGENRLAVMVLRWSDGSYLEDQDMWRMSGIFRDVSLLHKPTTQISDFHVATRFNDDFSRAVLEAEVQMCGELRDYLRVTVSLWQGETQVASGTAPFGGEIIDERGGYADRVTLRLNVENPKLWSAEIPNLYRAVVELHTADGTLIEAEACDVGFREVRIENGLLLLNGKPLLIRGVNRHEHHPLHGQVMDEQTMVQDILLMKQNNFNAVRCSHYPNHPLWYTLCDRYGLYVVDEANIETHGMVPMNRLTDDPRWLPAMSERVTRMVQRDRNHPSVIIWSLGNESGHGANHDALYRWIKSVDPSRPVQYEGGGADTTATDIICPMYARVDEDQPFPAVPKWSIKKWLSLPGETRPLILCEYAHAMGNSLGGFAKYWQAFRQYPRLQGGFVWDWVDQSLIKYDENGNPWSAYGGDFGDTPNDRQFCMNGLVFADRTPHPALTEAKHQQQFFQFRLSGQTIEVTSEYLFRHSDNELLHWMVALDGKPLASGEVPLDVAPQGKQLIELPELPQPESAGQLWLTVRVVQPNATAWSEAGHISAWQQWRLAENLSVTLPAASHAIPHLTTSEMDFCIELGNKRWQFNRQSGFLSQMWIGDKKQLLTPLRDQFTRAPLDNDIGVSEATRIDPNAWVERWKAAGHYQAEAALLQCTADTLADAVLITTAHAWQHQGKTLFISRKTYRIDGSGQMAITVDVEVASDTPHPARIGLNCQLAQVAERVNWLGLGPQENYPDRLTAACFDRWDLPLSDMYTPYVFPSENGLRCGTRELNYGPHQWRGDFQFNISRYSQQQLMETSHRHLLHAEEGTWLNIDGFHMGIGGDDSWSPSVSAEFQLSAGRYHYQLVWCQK

As for `CCCn1c2ccccc2c2nnc(SCc3[nH]c(O)nc3C(=O)CCCCC(=O)OCC)nc21`, the IC50 (usually the concentration needed to halve the response being measured) in experiment [1] is 3.23 µM (active). Besides, the EC50 (in general, the concentration needed to bring the measured effect to its halfway point) in [2] is > 195 µM (not active).
For the molecule `Oc1ccc2c(c1)OCC1(O)Cc3cc(O)c(O)cc3C21` (stereo not given), the EC50 in [3] was > 54.7 µM (inactive); in experiment [4] it was 53.6 µM (inactive); in [5], > 54.7 µM (inactive); in [7], 3.96 µM (active); in experiment [9], > 99 µM (inactive). Besides, the IC50 in experiment [6] was 85.1 µM (inactive). Besides, the AC50 – broadly, the midpoint of the concentration-response curve, whichever way the signal moves – in experiment [8] is 31.6 µM (inconclusive).
Consider `CCN(/N=C/C=C/c1ccccc1)c1cc(=O)n(C)c(=O)[nH]1`, for which the IC50 in experiment [10] was 155 µM (inactive); in [11], 13.1 µM (not active). Also, the EC50 in experiment [12] is > 260 µM (inactive).
`Oc1cc(SCc2ccccc2)ncn1`: in experiment [1], the IC50 was 0.514 µM (active).
Regarding `Cc1ccc(OCCN2C(=O)c3ccccc3C2=O)c([N+](=O)[O-])c1`, the half-inhibitory concentration (IC50) in experiment [13] is 9.04 µM (active). Besides, the EC50 in [14] was > 40 µM (inactive).
